Source: PMC7555276, “Using Ex Vivo Porcine Jejunum to Identify Membrane Transporter Substrates: A Screening Tool for Early—Stage Drug Development” (Biomedicines, 2020)
≈ marks a conversion by molar mass, not a printed value. Read-outs that look alike come from different tables or passages of the source.

Tests used:
rat intestine = conditions: absence of inhibitor; cited from earlier work
[1] = Ussing chamber permeation across ex vivo porcine jejunum; type: in vitro ADME, pig; conditions: female, Swiss noble, pig
From the text: (§1) Fresh jejunum from female, 6 month-old Swiss noble pigs was harvested immediately after slaughter (Abattoir de […], Switzerland and Abattoir de Loëx; Bernex, Switzerland). […] Briefly, the intestine was opened along the mesenteric border and carefully rinsed with ice-cold KBR. […] A six Ussing chamber system was used for the intestinal transport experiments (Physiologic Instruments; San Diego, CA, USA). The Ussing chambers were set up on a heating block connected to a VCC MC6 MultiChannel voltage-current clamp via six input modules, containing integral dummy membranes. A temperature of 38 °C (porcine body temperature) was maintained using a circulating water bath (ED-5, Julabo GmbH, Seelbach, Germany). The Ussing chamber system was set up following the protocol of […] et al. […] In a first step, the acceptor and donor compartments of the Ussing chamber were filled with preheated KBR, and any voltage difference between the electrodes and the electrical resistance due to the buffer solution was eliminated. […] The choice of all substrates and inhibitors was based on the University of California, San Francisco-Food and Drug Administration (UCSF-FDA) TransPortal. The substrates tested, their physicochemical properties and the inhibitors used are described in Table 1. […] The integrity of the intestinal tissue was monitored throughout the experiment by measurement of the transepithelial resistance (TEER). […] At the end of the experiment, samples were taken from the acceptor and the donor compartment. The intestinal tissue was cut into little pieces and extracted for 6 h at room temperature in the mobile phase used for the UHPLC-MS/MS analysis (see Supplementary Information). […] Mass spectrometry was performed in multiple reaction monitoring (MRM) mode. All details of the analytical methods used for each of the molecules tested can be found in the Supplementary Information.

ex vivo porcine jejunum = assay: as above; type: in vitro ADME, pig; conditions: for QPERM (+INH) / QDEP (+INH): presence of the corresponding transporter inhibitor (as E19); for change of Papp,pig in the presence of the corresponding inhibitor / change of QDEP in the presence of the corresponding inhibitor: statistical comparison, α = 0.05, inhibitors as E19; for Papp,pig fold lower than Papp,human: vs reported ex vivo human intestine
From the text: as §1

[2] = design: method as in earlier work; conditions: cited from earlier work
Solubility in KBR buffer = type: physicochemical; conditions: aqueous buffer, Krebs-bicarbonate ringer buffer pH 7.4
P-gp = conditions: substrate of P-gp, cited from earlier work
human intestine = test system: human intestine; design: method as in PMID 23103351, PMID 21416475; conditions: absence of inhibitor; cited from earlier work
BCRP = conditions: cited from earlier work
MRP2 = conditions: cited from earlier work
PEPT1 = test system: PEPT1; design: method as in PMID 18824524; conditions: inhibitor of PEPT1; cited from earlier work
[3] = test system: porcine intestine (ileum, jejunum); design: method as in PMID 30901927; conditions: porcine ileum and jejunum; cited from earlier work
OCT1 = conditions: substrate of OCT1; cited from earlier work
OATP2B1 = conditions: cited from earlier work
[4] = pH 7.4, absence of inhibitor, substrate 100 µM (digoxin 50 µM), 38 °C, KBR, read-out: Papp,pig (−INH)
[5] = drug in acceptor compartment at t = 2 h, absence of inhibitor
[6] = drug in acceptor compartment at t = 2 h
[7] = drug retained in intestinal membrane at t = 2 h, absence of inhibitor
[8] = drug retained in intestinal membrane at t = 2 h
[9] = Krebs-bicarbonate ringer (KBR) buffer
[10] = female, Swiss noble, pig, 2 h, pH 7.4

For `CC1=C(C(=O)O)N2C(=O)[C@@H](NC(=O)[C@H](N)c3ccc(O)cc3)[C@H]2SC1` [Cefadroxil], the “Papp,rat (−INH)” value (rat intestine) is given as 4.99 ± 0.50 [70] 10^−6 cm/s, the Papp at 120 min [1, 4] is given as 2.82 ± 0.2 ×10⁻⁶ cm/s and the “Papp,pig fold lower than Papp,rat” value (ex vivo porcine jejunum; corresponding segment of the intestine) is given as ~ 1.8 fold. For the same compound, the “QPERM (−INH)” value (ex vivo porcine jejunum; [5]) was 0.50 ± 0.18 (4) %, the “QPERM (+INH)” value (ex vivo porcine jejunum; [6]) was 0.31 ± 0.12 (6) % and the “QDEP (−INH)” value (ex vivo porcine jejunum; [7]) was 1.31 ± 0.40%. For the same compound, the “QDEP (+INH)” value (ex vivo porcine jejunum; [8]) was 1.47 ± 0.25%, the “change of Papp,pig in the presence of the corresponding inhibitor” value (ex vivo porcine jejunum) was “statistically significant decrease” and the “log P” value [2] was −0.4. For the same compound, the solubility (Solubility in KBR buffer; [9]) was 45000 ± 1100 µg/mL (≈ 124 mM).

For `C[C@H]1O[C@@H](O[C@H]2[C@@H](O)C[C@H](O[C@H]3[C@@H](O)C[C@H](O[C@H]4CC[C@@]5(C)[C@H](CC[C@@H]6[C@@H]5C[C@@H](O)[C@]5(C)[C@@H](C7=CC(=O)OC7)CC[C@]65O)C4)O[C@@H]3C)O[C@@H]2C)C[C@H](O)[C@@H]1O` [Digoxin], the “Papp,rat (−INH)” value (rat intestine) is given as 6.4 ± 1.9 [14] 10^−6 cm/s, the Km (P-gp; ref 58) is given as 73 µM and the Km (P-gp; ref 95) is given as 0.73 µM. For the same compound, the Papp at 120 min ([1]; pH 7.4, Papp,pig (−INH)) was 0.38 ± 0.23 ×10⁻⁶ cm/s, the “QDEP (−INH)” value (ex vivo porcine jejunum; [10]) was 0.62 ± 0.17% and the “QPERM (−INH)” value (ex vivo porcine jejunum; [10]) was 0.21 ± 0.12 (4) %. The “change of Papp,pig in the presence of the corresponding inhibitor” value (ex vivo porcine jejunum) was “significantly increased”, the solubility (Solubility in KBR buffer) was 40 ± 10 µg/mL (≈ 0.0512 mM) and the “Papp,human (−INH)” value (human intestine) was 1.44 ± 0.72 [30] 10^−6 cm/s.

For `CC(C)n1c(/C=C/C(O)CC(O)CC(=O)O)c(-c2ccc(F)cc2)c2ccccc21` (stereo not drawn) [Fluvastatin], the Ki (BCRP; inhibitor of BCRP) is given as 5.43 µM.

In the case of `COc1ccc2c(c1)c(CC(=O)O)c(C)n2C(=O)c1ccc(Cl)cc1` [Indomethacin], the IC50 (MRP2; inhibitor of MRP2) is given as 0.06 µM.

For `CCCCc1nc(Cl)c(CO)n1Cc1ccc(-c2ccccc2-c2nn[nH]n2)cc1` [Losartan], the IC50 (PEPT1) is given as 52 µM and the Ki (PEPT1) is given as 24 µM.

In the case of `CNC(=C[N+](=O)[O-])NCCSCc1ccc(CN(C)C)o1` [Ranitidine], the “Papp,rat (−INH)” value (rat intestine) is listed as 4.00 [72] 10^−6 cm/s, the Km (P-gp; ref 93) is listed as 270 µM and the Papp at 120 min [1, 4] is listed as 5.07 ± 0.83 ×10⁻⁶ cm/s. The “QPERM (−INH)” value (ex vivo porcine jejunum; [5]) was 0.62 ± 0.17 (12) %, the “QPERM (+INH)” value (ex vivo porcine jejunum; [6]) was 0.21 ± 0.03 (5) % and the “QDEP (−INH)” value (ex vivo porcine jejunum; [7]) was 1.11 ± 0.46%. For the same compound, the “QDEP (+INH)” value (ex vivo porcine jejunum; [8]) was 0.43 ± 0.12%, the “change of Papp,pig in the presence of the corresponding inhibitor” value (ex vivo porcine jejunum) was “significant decrease” and the “change of QDEP in the presence of the corresponding inhibitor” value (ex vivo porcine jejunum) was “significant decrease”. For the same compound, the solubility (Solubility in KBR buffer; [9]) was 19600 ± 2780 µg/mL (≈ 62.5 mM), the “effect of P-gp inhibition on Papp,pig” value [3] was “significant increase of Papp,pig in the ileum, but not in the jejunum” and the Km (OCT1) was 70 µM. For the same compound, the “Papp,human (−INH)” value (human intestine) was 5.50 [72] 10^−6 cm/s.

For `CN(CCOc1ccc(CC2SC(=O)NC2=O)cc1)c1ccccn1` (stereo not drawn) [Rosiglitazone], the IC50 (OATP2B1; inhibitor of OATP2B1) is listed as 5.2 µM.

For `CC(C)c1nc(N(C)S(C)(=O)=O)nc(-c2ccc(F)cc2)c1/C=C/[C@@H](O)C[C@@H](O)CC(=O)O` [Rosuvastatin], the Papp at 120 min [1, 4] was 0.91 ± 0.64 ×10⁻⁶ cm/s, the “QPERM (−INH)” value (ex vivo porcine jejunum; [5]) was 0.17 ± 0.09 (7) % and the “QPERM (+INH)” value (ex vivo porcine jejunum; [6]) was 0.29 ± 0.16 (6) %. For the same compound, the “QDEP (−INH)” value (ex vivo porcine jejunum; [7]) was 3.10 ± 1.46%, the “QDEP (+INH)” value (ex vivo porcine jejunum; [8]) was 1.30 ± 0.14% and the “change of Papp,pig in the presence of the corresponding inhibitor” value (ex vivo porcine jejunum) was “significantly increased”. For the same compound, the “change of QDEP in the presence of the corresponding inhibitor” value (ex vivo porcine jejunum) was “significantly decreased”, the “Papp,pig fold lower than Papp,human” value (ex vivo porcine jejunum) was ~ 9 fold and the “log P” value [2] was 0.13. The solubility (Solubility in KBR buffer; [9]) was 420 ± 160 µg/mL (≈ 0.872 mM), the Km (OATP2B1; substrate of OATP2B1) was 2.4 µM and the “Papp,human (−INH)” value (human intestine) was 6.95 ± 1.50 [30] 10^−6 cm/s.

For `O=C(O)c1cc(/N=N/c2ccc(S(=O)(=O)Nc3ccccn3)cc2)ccc1O` [Sulfasalazine], the “Papp,rat (−INH)” value (rat intestine) is listed as 2.76 ± 0.19 [73] 10^−6 cm/s, the Papp at 120 min [1, 4] is listed as 0.006 ± 0.004 ×10⁻⁶ cm/s and the “fold increase of Papp,pig in the presence of the inhibitor” value (ex vivo porcine jejunum; digoxin+verapamil, sulfasalazine+fluvastatin) is listed as 100 fold. The “QPERM (+INH)” value (ex vivo porcine jejunum; [6]) was 0.12 ± 0.07 (9) %, the “QDEP (−INH)” value (ex vivo porcine jejunum; [7]) was 3.23 ± 0.56% and the “QDEP (+INH)” value (ex vivo porcine jejunum; [8]) was 2.47 ± 1.24%. For the same compound, the “Papp,pig fold lower than Papp,human” value (ex vivo porcine jejunum) was ~ 10 fold, the “log P” value [2] was 0.4 and the solubility (Solubility in KBR buffer; [9]) was 3310 ± 140 µg/mL (≈ 8.31 mM). For the same compound, the Km (BCRP; substrate of BCRP) was 0.7 µM and the “Papp,human (−INH)” value (human intestine) was 0.09 ± 0.06 [30] 10^−6 cm/s.

For `CCCCC(=O)N(Cc1ccc(-c2ccccc2-c2nnn[nH]2)cc1)[C@H](C(=O)O)C(C)C` [Valsartan], the Km (MRP2; substrate of MRP2) is listed as 30.4 µM, the Papp at 120 min [1, 4] is listed as 1.2 ± 0.1 ×10⁻⁶ cm/s and the “QPERM (−INH)” value (ex vivo porcine jejunum; [5]) is listed as 0.17 ± 0.02 (4) %. For the same compound, the “QPERM (+INH)” value (ex vivo porcine jejunum; [6]) was 0.24 ± 0.10 (4) %, the “QDEP (−INH)” value (ex vivo porcine jejunum; [7]) was 0.44 ± 0.02% and the “QDEP (+INH)” value (ex vivo porcine jejunum; [8]) was 0.57 ± 0.07%. The “change of Papp,pig in the presence of the corresponding inhibitor” value (ex vivo porcine jejunum) was “No significant difference” and the “change of QDEP in the presence of the corresponding inhibitor” value (ex vivo porcine jejunum) was “significantly higher”.

In the case of `CN/C(=N/CCSCc1nc[nH]c1C)NC#N` [cimetidine], the “effect of P-gp inhibition on Papp,pig” value [3] is given as “significant increase of Papp,pig in the ileum, but not in the jejunum”.
